Patent US10500207B2, “Compounds for the treatment of diseases associated with amyloid or amyloid-like proteins” (AC Immune SA, priority 2010, dated 2019)

Target: Aβ1-42 peptide (Homo sapiens, UniProt P05067)
Experiment: Thioflavin T spectrofluorescence assay (ThT-assay): inhibition of Aβ1-42 aggregation (% inhibition at 330 μM; IC50 from dilution series)
Details: for inhibition at 330 µM: 24 h, read-out: Inhibition at 330 μM [%], ThT assay; for IC50: dilution series 330 μM to 0.08 μM
[1] = 330 μM small molecule, 33 μM Aβ1-42 (10:1), 24 hrs at 37° C., mean ± standard deviation of two independent experiments
[2] = IC50 μM 1st assay, ThT assay, 1st assay
[3] = IC50 μM 2nd assay, ThT assay, 2nd assay

Chain of Aβ1-42 peptide (P05067 672-713 limits assumed): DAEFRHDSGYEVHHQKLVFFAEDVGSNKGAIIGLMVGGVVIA
Protocol: Aβ1-42 lyophilized powder (Bachem) was reconstituted in hexafluoroisopropanol (HFIP) to 1 mM. The peptide solution was sonicated for 15 min at room temperature, agitated overnight, and aliquots were made into non-siliconized microcentrifuge tubes. The HFIP was then evaporated under a stream of argon. The resulting peptide film was dried under vacuum for 10 min, tightly sealed and stored at −80° C. until used.
A positive control without a small molecule was prepared to measure maximum RFU. A negative control without Aβ1-42 was prepared for each small molecule. […] The solutions were then incubated for 24 hrs at 37° C., and the spectrofluorescence (relative fluorescence units; RFU) were read in six replicates in black 384-well assay plates (Perkin-Elmer) on a Perkin-Elmer FluoroCount spectrofluorometer. The inhibition of aggregation is expressed as mean % inhibition±1 standard deviation (SD) according to the following equation:
Racemic compounds and their enantiomers were tested for their ability to inhibit amyloid peptide aggregation using the ThT assay. To determine the IC50, the following dilutions of the compounds were used in the ThT assay described above:

Structure (SMILES)	inhibition at 330 µM [1]	other results
Cn1c2c(c3ccc(Nc4ccc5c(c4)NC(=O)CO5)nc31)CCCC2 [Example 168]	82.1 ± 7%	–
CN1CCC(c2cn(C)c3cc(Nc4cccc(N5CCOCC5)c4)ccc23)CC1 [Example 75]	97.1 ± 2%	–
CNC1CCc2c(c3ccc(Nc4cccc(N5CCOCC5)c4)nc3n2C)C1 (centres unmarked) [Example 82]	96.6 ± 2%	–
CNC1CCc2c(c3ccc(Nc4ccc5c(c4)CN(C)CC5)nc3n2C)C1 (centres unmarked) [Example 158]	87.8 ± 3.6%	–
COc1ccc(Nc2ccc3c(C4CCN(C)CC4)c[nH]c3c2)cc1F [Example 99]	94.4 ± 0.1%	–
CNC1CCc2[nH]c3ccc(Nc4ccc(F)c(OC)c4)cc3c2C1 (centres unmarked) [Example 116]	89 ± 3.6%	–
COc1ccc(Nc2ccc3c(C4CCNCC4)cn(C)c3n2)cc1F [Example 103]	93.2 ± 3.7%	–
Cn1c2c(c3ccc(Nc4ccc(F)c(F)c4)nc31)CC(OCCF)CC2 (centres unmarked) [Example 128]	88.6 ± 1.2%	–
CNC1CCc2c(c3ccc(Nc4ccc5c(c4)OCO5)nc3n2C)C1 (centres unmarked) [Example 157]	95 ± 1.5%	–
CC(=O)N1CCN(c2ccc(Nc3ccc4c5c(n(C)c4n3)CCCC5)cc2)CC1 [Example 170]	70.8 ± 2.3%	–
Fc1ccc(Nc2ccc3c(c2)OCO3)cc1F [Example 186]	66.5 ± 2.4%	–
CNC1CCc2c(c3ccc(Nc4ccc5[nH]cc(C6CCNCC6)c5c4)nc3n2C)C1 (centres unmarked) [Example 92]	99.6 ± 0.6%	–
CN1CCC(c2c[nH]c3cc(Nc4ccc5c(c4)OCO5)ccc23)CC1 [Example 153]	91.3 ± 4.2%	–
COc1ccc(Nc2ccc3c4c(n(C)c3n2)CCC(OCCF)C4)cc1OC (centres unmarked) [Example 129]	79.9 ± 0.6%	–
Cn1cc(C2CCNCC2)c2ccc(Nc3ccc4ocnc4c3)cc21 [Example 111]	99.5 ± 0.1%	–
Cn1c2c(c3cc(Nc4ccc(C(F)(F)F)nc4)ccc31)CS(=O)(=O)CC2 [Example 179]	30.2 ± 0.9%	–
FC(F)(F)c1ccc(Nc2ccc3c(C4CCNCC4)c[nH]c3n2)cn1 [Example 61]	83 ± 2.1%	–
Fc1cc(F)cc(Nc2ccc3cc[nH]c3n2)c1 [Example 6]	60.1 ± 3.5%	–
Cn1c2c(c3cc(Nc4ccc(F)c(F)c4)ccc31)CS(=O)(=O)CC2 [Example 176]	41.5 ± 3.6%	–
c1cc2c(cc1Nc1ccc3c(C4CCNCC4)c[nH]c3c1)OCO2 [Example 41]	98 ± 0.5%	–
Cn1c2c(c3ccc(Nc4ccc5c(c4)OCO5)nc31)CCCC2 [Example 169]	92.4 ± 4%	–
CN1CCc2ccc(Nc3ccc4c5c(n(C)c4n3)CCC5)cc2C1 [Example 174]	87.2 ± 1.3%	–
CN1CCC(c2c[nH]c3cc(Nc4ccc5c(c4)OCC(=O)N5)ccc23)CC1 [Example 87]	80.8 ± 0.5%	–
CN1CCC(c2c[nH]c3cc(Nc4cccc(N5CCOCC5)c4)ccc23)CC1 [Example 20]	92.8 ± 0.1%	–

Structure (SMILES)	inhibition at 330 µM [1]	other results
Cn1c2c(c3ccc(Nc4ccc(F)c(F)c4)cc31)CN(CCCCS(C)(=O)=O)CC2 [Example 210]	43.2 ± 12.9%	–
CNC1CCc2c(c3ccc(Nc4ccc(N5CCOCC5)cc4)nc3n2C)C1 (single isomer, unassigned) [Example 216b]	–	IC50 [2]: 45 µM; IC50 [3]: 34.5 µM
Cn1c2c(c3cc(Nc4ccc(F)c(F)c4)ccc31)CN(CCCCS(C)(=O)=O)CC2 [Example 208]	85 ± 3.3%	–
c1cc2cc(Nc3ccc4cc[nH]c4c3)ccc2[nH]1 [Example 16]	93.7 ± 2.1%	–
c1ccc(Nc2ccc3c(c2)OCO3)cc1 [Example 185]	55.2 ± 6%	–
CN1CCN(C(=O)c2ccc(Nc3ccc4c(c3)OCO4)cc2)CC1 [Example 190]	20.1 ± 4.6%	–
CNC1CCc2[nH]c3ccc(Nc4ccc(OC)c(F)c4)cc3c2C1 (centres unmarked) [Example 107]	86.8 ± 1.9%	–
COc1ccc(Nc2ccc3c(c2)c2c(n3C)CCC(OC)C2)cc1OC (centres unmarked) [Example 121]	91 ± 2.5%	–
CN1CCC(c2c[nH]c3cc(Nc4ccc5c(c4)CNCC5)ccc23)CC1 [Example 154]	86.3 ± 2.6%	–
c1cc2c(cc1Nc1ccc3c(c1)OCO3)OCO2 [Example 187]	82.2 ± 6%	–
c1nc2[nH]cc(C3CCNCC3)c2cc1Nc1ccc2c3c([nH]c2n1)CCCC3 [Example 45]	96.5 ± 3.7%	–
c1cc(Nc2ccc3c(C4CCNCC4)c[nH]c3c2)cc(N2CCOCC2)c1 [Example 62]	99.7 ± 0.3%	–
CN1CCC(c2c[nH]c3cc(Nc4ccc5c(C6CCN(C)CC6)c[nH]c5c4)ccc23)CC1 [Example 119]	99.2 ± 0.3%	–
CNC1CCc2[nH]c3nc(Nc4ccc(C(F)(F)F)nc4)ccc3c2C1 (centres unmarked) [Example 25]	63.4 ± 9%	–
CNC1CCc2c(c3ccc(Nc4ccc5ncn(C)c5c4)nc3n2C)C1 (centres unmarked) [Example 159]	91.9 ± 1.6%	–
c1cc2cc(Nc3ccc4cc[nH]c4n3)cnc2[nH]1 [Example 11]	86.2 ± 8.6%	–
Fc1ccc(Nc2ccc3c(C4CCNCC4)c[nH]c3n2)cc1F [Example 60]	83.1 ± 3.4%	–
CNC1CCc2c(c3ccc(Nc4ccc5c(c4)OCCO5)nc3n2C)C1 (racemic) [Example 156]	85.1 ± 0.8%	IC50 [2]: 39.7 µM; IC50 [3]: 26.7 µM
CNC1CCc2c(c3cc(Nc4ccc5c(c4)OCCO5)cnc3n2C)C1 (centres unmarked) [Example 137]	83.3 ± 3.3%	–
c1cc2ccc(Nc3ccc4cc[nH]c4c3)cc2[nH]1 [Example 17]	96.3%	–
Cn1cc(C2CCNCC2)c2ccc(Nc3ccc4c(c3)OCO4)nc21 [Example 66]	85.1 ± 0.8%	–
CN1CCN(c2ccc(Nc3ccc4c5c(n(C)c4n3)CCCC5)cc2)CC1 [Example 166]	93.6 ± 2.2%	–
CNC1CCc2c(c3ccc(Nc4ccc(F)c(F)c4)nc3n2C)C1 (racemic) [Example 26, N^2-(3,4-difluorophenyl)-N^8,9-dimethyl-6,7,8,9-tetrahydro-5H-pyrido[2,3-b]indole-2,6-diamine hydrogenchloride]	93.4 ± 3.9%	IC50 [2]: 12.2 µM; IC50 [3]: 16.8 µM
CNC1CCc2c(c3ccc(Nc4ccc5c(c4)OCC(=O)N5)nc3n2C)C1 (centres unmarked) [Example 85]	95.1 ± 0.9%	–

Structure (SMILES)	inhibition at 330 µM [1]	other results
CNC1CCc2c(c3cc(Nc4ccc(F)c(F)c4)cnc3n2C)C1 (centres unmarked) [Example 134]	67.3 ± 10.4%	–
c1cc2ncc(Nc3ccc4cc[nH]c4n3)cc2[nH]1 [Example 13]	97.8 ± 1.8%	–
Cn1c2c(c3ccc(Nc4ccc5c(c4)OCCO5)cc31)CNCC2 [Example 202]	86.1 ± 1.6%	–
CNC1CCc2c(c3ccc(Nc4ccc(OC)c(OC)c4)nc3n2C)C1 (centres unmarked) [Example 95]	89.9 ± 6.1%	–
N#Cc1c[nH]c2nc(Nc3ccc(F)cc3)ccc12 [Example 15]	58.6 ± 9.5%	–
COc1cc(Nc2ccc3c(c2)c2c(n3C)CCC(OC)C2)ccc1F (centres unmarked) [Example 122]	80.8 ± 2.9%	–
Cn1c2c(c3cc(Nc4ccc(N5CCOCC5)cc4)ccc31)CS(=O)(=O)CC2 [Example 184]	41.3 ± 1.1%	–
CNC1CCc2c(c3ccc(Nc4ccc5c(c4)OCCO5)nc3n2C)C1 (single isomer, unassigned) [Example 217a]	–	IC50 [2]: 28 µM; IC50 [3]: 23.6 µM
CNC1CCc2[nH]c3nc(Nc4ccc5c(C6CCNCC6)c[nH]c5c4)ccc3c2C1 (centres unmarked) [Example 31]	96.5 ± 0.6%	–
CN1CCC(c2c[nH]c3cc(Nc4ccc(N5CCOCC5)cc4)ccc23)CC1 [Example 162]	94.5 ± 3.1%	–
Cn1cnc2ccc(Nc3ccc4c5c(n(C)c4n3)CCCC5)cc21 [Example 172]	68.3 ± 0.8%	–
CNC1CCc2c(c3ccc(Nc4ccc(OC)c(OC)c4)cc3n2C)C1 (centres unmarked) [Example 133]	99.2 ± 0.3%	–
COC(=O)c1c[nH]c2nc(Nc3ccc4c(C5CCNCC5)c[nH]c4c3)ccc12 [Example 32]	94.7 ± 1%	–
CNC1CCc2c(c3ccc(Nc4ccc5c(c4)OCCO5)nc3n2C)C1 (single isomer, unassigned) [Example 217b]	–	IC50 [2]: 6.6 µM; IC50 [3]: 5.9 µM
CN(C)C(=O)c1ccc(Nc2ccc3cc[nH]c3n2)cc1 [Example 5]	–	Inhibition at 330 μM [%] (ThT assay, 330 μM small molecule, 33 μM Aβ1-42 (10:1), 24 hrs at 37° C., mean ± standard deviation of two independent experiments): no inhibition
CNC1CCc2c(c3ccc(Nc4ccc5c(C6CCN(C)CC6)c[nH]c5c4)nc3n2C)C1 (centres unmarked) [Example 117]	90.7 ± 7.9%	–
CC(C)OC1CCc2c(c3ccc(Nc4ccc5c(c4)OCCO5)nc3n2C)C1 (centres unmarked) [Example 203]	93.4 ± 3.5%	–
c1cc2c(C3CCNCC3)c[nH]c2cc1Nc1ccc2c(C3CCNCC3)c[nH]c2c1 [Example 63]	91.5 ± 2.5%	–
COc1ccc(Nc2ccc3c(C4CCNCC4)cn(C)c3c2)cc1OC [Example 97]	83.8 ± 3.7%	–
COCCNC1CCc2c(c3ccc(Nc4ccc(F)c(F)c4)nc3n2C)C1 (centres unmarked) [Example 141]	87.5 ± 1.4%	–
CN1CCC(c2c[nH]c3cc(Nc4ccc5[nH]cc(C6CCNCC6)c5c4)ccc23)CC1 [Example 68]	90.4 ± 5.3%	–
Cn1cc(C2CCNCC2)c2cc(Nc3ccc4c(C5CCNCC5)cn(C)c4c3)ccc21 [Example 53]	96 ± 2.1%	–
